Test results as given in the NIST ThermoML archive (doi:10.1021/acs.jced.7b00494).

Assay: mn = molality of the nth substance listed, in mol/kg
Details: 99.6 kPa, Liquid; for mass density: Vibrating tube method; for kinematic viscosity: Capillary tube (Ostwald / Ubbelohde) method

CNC(C)=O [N-methylacetamide] + [Ca+2].[Cl-].[Cl-]
Details	kinematic viscosity, 323.15 K [m2/s]	kinematic viscosity, 328.15 K [m2/s]	mass density, 318.15 K [kg/m3]	mass density, 323.15 K [kg/m3]	mass density, 328.15 K [kg/m3]
m2 = 0	2.68e-06	2.42e-06	937.44	933.24	929.07
m2 = 0.00398	2.69e-06	2.44e-06	937.73	933.54	929.34
m2 = 0.01042	2.72e-06	2.46e-06	938.2	933.97	929.79
m2 = 0.04232	2.86e-06	2.58e-06	940.39	936.24	932.07
m2 = 0.05605	2.92e-06	2.63e-06	941.34	937.18	933.03
m2 = 0.08536	3.05e-06	2.74e-06	943.45	939.13	934.99
m2 = 0.1022	3.13e-06	2.81e-06	944.7	940.52	936.21
m2 = 0.1314	3.28e-06	2.95e-06	946.62	942.51	938.24
m2 = 0.1539	3.39e-06	3.05e-06	948.18	943.99	939.85
m2 = 0.1613	3.43e-06	3.09e-06	948.73	944.54	940.37
m2 = 0.1719	3.48e-06	3.13e-06	949.44	945.4	941.17
m2 = 0.1998	3.64e-06	3.27e-06	951.58	947.31	943.19
m2 = 0.2219	3.77e-06	3.39e-06	953.04	948.77	944.71
m2 = 0.2578	4e-06	3.58e-06	955.68	951.4	947.13
m2 = 0.3546	4.71e-06	4.2e-06	962.4	958.22	953.99
